Measurements published in patent US20260083865A1, “PROSTATE SPECIFIC MEMBRANE ANTIGEN (PSMA) LIGANDS AND USE THEREOF” (priority 2022, published 2026).
Numbered stars: 1 amine (or outer) side, 2 acyl side, 3 side chain; on linkers, the order of the positions; unused ones are H or OH. Bridge positions count the residues as written; N and C are the ends. Square brackets hold non-standard residues; d marks the D form. Peptide text beside a SMILES is read from it. * marks the point of attachment. DOTA = O=C(O)CN1CCN(CC(=O)O)CCN(CC(=O)*)CCN(CC(=O)O)CC1; Phe(3-CN) = N#Cc1cccc(C[C@H](N)C(=O)O)c1; Phe(4-Cl) = N[C@@H](Cc1ccc(Cl)cc1)C(=O)O; Phe(2-Cl) = N[C@@H](Cc1ccccc1Cl)C(=O)O; Phe(3-F) = N[C@@H](Cc1cccc(F)c1)C(=O)O; Arg(Me) = CNC(=N)NCCC[C@H](N)C(=O)O; X1 = O=C(CC1CCN([*:1])CC1)[*:2]; Lys(Me) = CNCCCC[C@H](N)C(=O)O; Thr(ol) = C[C@@H](O)[C@H](N)CO; Tle = CC(C)(C)[C@H](N)C(=O)O; Aib = CC(C)(N)C(=O)O

Assays:
[1] = biological target: T1, PSMA-expressing C4-2 cells (Homo sapiens, UniProt Q04609); assay: FACS binding assay (competition with 50 nM PSM-0183); conditions: pIC50 category of FACS binding, C4-2 cells; read-out: pIC50 [C4-2] CAT (converted)
T1 construct: PSMA-expressing C4-2 cells (ATCC, Cat. No. CRL-3314) were cultured in RPMI-1640; host or cells: C4-2 cells
T1 sequence (Q04609 whole entry): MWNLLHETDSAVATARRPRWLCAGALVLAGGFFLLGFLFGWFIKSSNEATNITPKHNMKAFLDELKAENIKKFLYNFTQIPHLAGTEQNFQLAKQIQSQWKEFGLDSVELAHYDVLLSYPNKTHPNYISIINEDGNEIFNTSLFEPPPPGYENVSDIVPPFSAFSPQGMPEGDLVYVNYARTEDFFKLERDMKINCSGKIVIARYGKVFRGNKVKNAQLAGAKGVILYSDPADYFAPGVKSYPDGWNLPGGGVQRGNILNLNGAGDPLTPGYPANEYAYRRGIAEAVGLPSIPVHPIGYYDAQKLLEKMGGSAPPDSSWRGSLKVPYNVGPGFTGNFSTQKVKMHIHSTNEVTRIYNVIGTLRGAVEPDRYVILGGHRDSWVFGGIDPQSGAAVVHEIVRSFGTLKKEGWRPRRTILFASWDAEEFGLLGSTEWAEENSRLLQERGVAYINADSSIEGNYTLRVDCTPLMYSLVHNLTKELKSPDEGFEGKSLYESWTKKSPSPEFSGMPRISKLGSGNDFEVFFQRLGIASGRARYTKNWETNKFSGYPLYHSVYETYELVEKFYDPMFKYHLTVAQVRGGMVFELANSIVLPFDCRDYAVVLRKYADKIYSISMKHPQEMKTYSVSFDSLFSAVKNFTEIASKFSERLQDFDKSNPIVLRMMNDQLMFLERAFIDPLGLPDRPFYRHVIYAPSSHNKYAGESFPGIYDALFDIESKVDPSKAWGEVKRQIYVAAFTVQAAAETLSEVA
In short: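 Competition format: fluorescent tracer PSM-0183 (50 nM) displaced from PSMA on C4-2 cells by a test compound titration over 1 h at 4 °C. Bound tracer was quantified as flow-cytometric AF488 median fluorescence after washing. Four-parameter logistic fits of MFI data gave IC50 and pIC50.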

[2] = biological target: T2, Fc-fusion protein of human PSMA (hPSMA-Fc) (Homo sapiens, UniProt Q04609); assay: Surface plasmon resonance assay (Biacore T200, single cycle kinetic); format: binding; conditions: pKD category for PSMA SPR activity assay, hPSMA-Fc, 25° C.; read-out: pKD CAT (converted)
T2 construct: purchased Acro Biosystems PSA-H5264
T2 sequence (Q04609 44-750 limits assumed): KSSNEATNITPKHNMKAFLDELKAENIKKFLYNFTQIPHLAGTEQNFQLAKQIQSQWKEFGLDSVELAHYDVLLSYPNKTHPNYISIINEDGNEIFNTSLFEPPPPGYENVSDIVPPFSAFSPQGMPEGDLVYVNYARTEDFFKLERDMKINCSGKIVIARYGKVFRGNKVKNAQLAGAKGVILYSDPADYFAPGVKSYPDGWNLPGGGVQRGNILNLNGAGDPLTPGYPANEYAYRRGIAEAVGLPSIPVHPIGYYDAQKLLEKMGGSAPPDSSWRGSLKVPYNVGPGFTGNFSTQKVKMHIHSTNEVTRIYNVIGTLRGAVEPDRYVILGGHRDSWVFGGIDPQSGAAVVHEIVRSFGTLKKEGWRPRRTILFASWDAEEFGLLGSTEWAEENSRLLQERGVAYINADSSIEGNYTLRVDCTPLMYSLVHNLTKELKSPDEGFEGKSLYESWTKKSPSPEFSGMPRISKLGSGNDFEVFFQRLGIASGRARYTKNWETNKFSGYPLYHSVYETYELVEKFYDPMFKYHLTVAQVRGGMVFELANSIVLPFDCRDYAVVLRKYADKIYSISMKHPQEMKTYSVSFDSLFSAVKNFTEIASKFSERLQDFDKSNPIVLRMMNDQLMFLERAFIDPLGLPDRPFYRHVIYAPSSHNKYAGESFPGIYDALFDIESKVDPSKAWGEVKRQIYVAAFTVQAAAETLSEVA
In short: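 KD, expressed as pKD, came from 1:1 Langmuir fits of reference- and buffer-blank-subtracted SPR data. The runs were single-cycle kinetics at 25° C in HBST/0.1% DMSO over human PSMA-Fc, captured to ~1000 RU on a peptide-coated CM5 surface and regenerated with 10 mM glycine pH 1.5.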

| IC50 [1] [nM] | Kd [2] [nM] | Compound |
| --- | --- | --- |
| < 200 | < 12.6 | CC(=O)N[C@H](C(=O)NC(C)(C)C(=O)N[C@@H](Cc1cccc(F)c1)C(=O)N[C@H]1CSSC[C@@H](C(=O)N[C@H](C(=O)N[C@H](C(N)=O)[C@@H](C)O)C(C)(C)C)NC(=O)[C@H](CC(N)=O)NC(=O)C(C)(C)NC(=O)[C@H](CCCNC(=N)N)NC(=O)[C@H](CCCCN)NC1=O)[C@@H](C)O [PSM-0551, Ac-Thr-Aib-Mff-[Cys-Lys-Arg-Aib-Asn-Cys]-Tle-Thr-NH2] (Ac-T[Aib][Phe(3-F)]CKR[Aib]NC[Tle]T-NH2; disulfide 4-9) |
| < 200 | < 12.6 | CC(=O)N[C@H](C(=O)NC(C)(C)C(=O)N[C@@H](Cc1ccccc1)C(=O)N[C@H]1CSSC[C@@H](C(=O)N[C@H](C(=O)N[C@H](C(N)=O)[C@@H](C)O)C(C)(C)C)NC(=O)[C@H](CC(N)=O)NC(=O)[C@H](C)NC(=O)[C@H](CCCNC(=N)N)NC(=O)[C@H](CCCCN)NC1=O)[C@@H](C)O [PSM-0552, Ac-Thr-Aib-Phe-[Cys-Lys-Arg-Ala-Asn-Cys]-Tle-Thr-NH2] (Ac-T[Aib]FCKRANC[Tle]T-NH2; disulfide 4-9) |
| < 200 | 12.6 to 126 | CNCCCC[C@@H]1NC(=O)[C@@H](NC(=O)[C@H](Cc2cccc(F)c2)NC(=O)C(C)(C)NC(=O)[C@@H](NC(=O)CC2CCN(C(=O)CN3CCN(CC(=O)O)CCN(CC(=O)O)CCN(CC(=O)O)CC3)CC2)[C@@H](C)O)CSSC[C@@H](C(=O)N[C@H](C(N)=O)C(C)(C)C)NC(=O)[C@H](CC(N)=O)NC(=O)C(C)(C)NC(=O)[C@H](CCCNC(=N)NC)NC1=O [PSM-0553, DOTA-Cmp-Thr-Aib-Mff-[Cys-Lys(Me)-Arg(Me)-Aib-Asn-Cys]-Tle-NH2] ({DOTA}-[X1]T[Aib][Phe(3-F)]C[Lys(Me)][Arg(Me)][Aib]NC[Tle]-NH2; disulfide 5-10) |
| < 200 | < 12.6 | CC(=O)N[C@H](C(=O)NC(C)(C)C(=O)N[C@@H](Cc1ccc(Cl)cc1)C(=O)N[C@H]1CSSC[C@@H](C(=O)N[C@H](C(=O)N[C@H](CO)[C@@H](C)O)C(C)(C)C)NC(=O)[C@H](CC(N)=O)NC(=O)C(C)(C)NC(=O)[C@H](CCCNC(=N)N)NC(=O)[C@H](CCCCN)NC1=O)[C@@H](C)O [PSM-0554, Ac-Thr-Aib-Pcf-[Cys-Lys-Arg-Aib-Asn-Cys]-Tle-Throl-OH] (Ac-T[Aib][Phe(4-Cl)]CKR[Aib]NC[Tle][Thr(ol)]; disulfide 4-9) |
| < 200 | < 12.6 | CC(=O)N[C@H](C(=O)NC(C)(C)C(=O)N[C@@H](Cc1cccc(C#N)c1)C(=O)N[C@H]1CSSC[C@@H](C(=O)N[C@H](C(=O)N[C@H](C(N)=O)[C@@H](C)O)C(C)(C)C)NC(=O)[C@H](CC(N)=O)NC(=O)C(C)(C)NC(=O)[C@H](CCCNC(=N)N)NC(=O)[C@H](CCCCN)NC1=O)[C@@H](C)O [PSM-0555, Ac-Thr-Aib-Mnf-[Cys-Lys-Arg-Aib-Asn-Cys]-Tle-Thr-NH2] (Ac-T[Aib][Phe(3-CN)]CKR[Aib]NC[Tle]T-NH2; disulfide 4-9) |
| < 200 | < 12.6 | CC(=O)N[C@H](C(=O)NC(C)(C)C(=O)N[C@@H](Cc1ccccc1)C(=O)N[C@H]1CSSC[C@@H](C(=O)N[C@H](C(=O)N[C@@H](Cc2ccccc2)C(N)=O)C(C)(C)C)NC(=O)[C@H](CC(N)=O)NC(=O)C(C)(C)NC(=O)[C@H](CCCNC(=N)N)NC(=O)[C@H](CCCCN)NC1=O)[C@@H](C)O [PSM-0556, Ac-Thr-Aib-Phe-[Cys-Lys-Arg-Aib-Asn-Cys]-Tle-Phe-NH2] (Ac-T[Aib]FCKR[Aib]NC[Tle]F-NH2; disulfide 4-9) |
| < 200 | 12.6 to 126 | CC(=O)N[C@H](C(=O)NC(C)(C)C(=O)N[C@@H](Cc1ccccc1Cl)C(=O)N[C@H]1CSSC[C@@H](C(=O)N[C@H](C(=O)N[C@H](C(=O)N[C@@H](CC(=O)O)C(N)=O)[C@@H](C)O)C(C)(C)C)NC(=O)[C@H](CC(N)=O)NC(=O)C(C)(C)NC(=O)[C@H](CCCNC(=N)N)NC(=O)[C@H](CCCCN)NC1=O)[C@@H](C)O [PSM-0558, Ac-Thr-Aib-Ocf-[Cys-Lys-Arg-Aib-Asn-Cys]-Tle-Thr-Asp-NH2] (Ac-T[Aib][Phe(2-Cl)]CKR[Aib]NC[Tle]TD-NH2; disulfide 4-9) |
